According to ChEMBL document CHEMBL3301361, “Experimental in vitro DMPK and physicochemical data on a set of publicly disclosed compounds”:
Values after ≈ are worked out from the molar mass of the structure shown.

Legend:
in vitro [1] = settings: SD, HW or BN, rat, plasma
in vitro [2] = settings: mouse, plasma
in vitro [3] = settings: human, plasma
in vitro [4] = settings: Beagle, dog, plasma
physchem [5] = settings: octan-1-ol/water
in vitro [6] = settings: Dunkin Hartley, guinea pig, plasma
in vitro [7] = settings: human, hepatocytes
in vitro [8] = settings: hepatocytes
in vitro [9] = settings: human
physchem [10] = settings: pH 7.4 buffer
physchem [11] = test: physchem
physchem [12] = test: physchem; remark: listed apart in the source

SMILES | fraction unbound at 5 h (in vitro [1]) | fraction unbound at 5 h (in vitro [3]; PPB) | logD (physchem [5]; pH 7.4, LogD7.4) | fraction unbound at 5 h (in vitro [6]) | hepatocyte CLint (in vitro [8]) | also measured
O=c1cc(OCc2ccccc2)ccn1-c1ccc2c(cnn2CCN2CCCC2)c1 | 0.119 | 0.17 | 2 |  |  | fraction unbound at 5 h (in vitro [2]): 0.137; fraction unbound at 5 h (in vitro [4]): 0.16
Cc1nn(C2CCCCC2)c(N)c1-c1ccccc1 | 0.101 | 0.0447 |  | 0.105 |  | hepatocyte CLint (in vitro [7]): 13.8 µL/min/1e6 cells
C[C@@H](NC(=O)Cc1ccc(C2CC2)cc1)c1ccc(OCC(F)(F)F)cn1 | 0.0044 | 0.0041 |  | 0.0006 |  | 
CCN(CCNCCc1ccc(O)c2[nH]c(=O)sc12)C(=O)CCOCCc1ccccc1 |  | 0.0544 | 1.92 | 0.103 | 135 µL/min/1e6 cells | microsomal CLint (in vitro [9]; liver microsomes): 82 µL/min/mg
CCCN(CCNCCc1ccc(O)c2[nH]c(=O)sc12)C(=O)CCOCCc1ccccc1 |  | 0.0606 |  | 0.11 | 107 µL/min/1e6 cells | microsomal CLint (in vitro [9]; liver microsomes): > 150 µL/min/mg
CC(C)N(CCNCCc1ccc(O)c2[nH]c(=O)sc12)C(=O)CCOCCc1ccccc1 |  | 0.028 | 2.33 | 0.0752 | 99 µL/min/1e6 cells | microsomal CLint (in vitro [9]; microsomes): 60 µL/min/mg
CCCCN(CCNCCc1ccc(O)c2[nH]c(=O)sc12)C(=O)CCOCCc1ccccc1 | 0.0705 | 0.0532 | 3 | 0.17 | > 150 µL/min/1e6 cells | hepatocyte CLint (in vitro [7]): 25.9 µL/min/1e6 cells; microsomal CLint (in vitro [9]; liver microsomes): 141 µL/min/mg
O=c1[nH]c2c(O)ccc([C@@H](O)CNCCCOCCNCCc3cccc(Cl)c3)c2s1 |  |  | -0.03 | 0.186 | < 3 µL/min/1e6 cells | microsomal CLint (in vitro [9]; liver microsomes): < 3 µL/min/mg
CN(C)CCC1CCN(c2cc(C(=O)NC[C@H]3CC[C@H](CNC(=O)OC(C)(C)C)CC3)c3ccccc3n2)CC1 | 0.04 | 0.0335 |  |  |  | fraction unbound at 5 h (in vitro [2]): 0.0079; fraction unbound at 5 h (in vitro [4]): 0.0066
N#Cc1ccc2c(c1)N(CCN1CCC(NCc3ccc4c(n3)NC(=O)CO4)CC1)C(=O)CO2 |  |  |  | 0.591 | 8.51 µL/min/1e6 cells | logD (physchem [5]; pH 7.4): 0.23
COc1ccc2ncc(F)c(CCN3CCC(NCc4cc5c(cn4)OCCO5)CC3)c2n1 |  | 0.173 | 1.46 |  | 138 µL/min/1e6 cells | fraction unbound at 5 h (in vitro [2]): 0.36; fraction unbound at 5 h (in vitro [4]): 0.0968
Cc1cc(CCC[N+]23CCC(CC2)[C@@H](OC(=O)[C@](C)(c2ccccc2)N2CCCCC2)C3)ccn1 |  |  |  | 0.529 | 36.1 µL/min/1e6 cells | 
C[C@@](C(=O)O[C@H]1C[N+]2(CCCc3ccc4ncsc4c3)CCC1CC2)(c1ccccc1)N1CCCCC1 |  |  |  | 0.244 | 66 µL/min/1e6 cells | 
C[C@@](C(=O)O[C@H]1C[N+]2(CC(=O)Nc3ccccc3)CCC1CC2)(c1ccccc1)N1CCCCC1 |  |  |  | 0.0499 | 64 µL/min/1e6 cells | 
C[C@@](C(=O)O[C@H]1C[N+]2(CCc3ccccc3)CCC1CC2)(c1ccccc1)N1CCCCC1 | 0.22 |  |  | 0.129 | 76 µL/min/1e6 cells | 
C[C@@](C(=O)O[C@H]1C[N+]2(CCc3ccccc3F)CCC1CC2)(c1ccccc1)N1CCCCC1 |  |  |  | 0.194 | 130 µL/min/1e6 cells | 
C[C@H](c1nc2ncccc2c(=O)n1-c1ccc(Cl)cc1)N(CC1CCS(=O)(=O)CC1)C(=O)Cc1ccc(C(F)(F)F)c(F)c1 | 0.101 | 0.11 | 2.9 |  | 7.08 µL/min/1e6 cells | fraction unbound at 5 h (in vitro [2]): 0.0477; fraction unbound at 5 h (in vitro [4]): 0.0544; microsomal CLint (in vitro [9]; microsomes): 5.25 µL/min/mg
O=c1[nH]c2c(O)ccc([C@@H](O)CNCCc3cccc(CNCCc4ccccc4F)c3)c2s1 | 0.134 |  | 1.06 | 0.107 | 22 µL/min/1e6 cells | hepatocyte CLint (in vitro [7]): < 3 µL/min/1e6 cells; microsomal CLint (in vitro [9]; liver microsomes): 17 µL/min/mg
COc1ccccc1CCNCc1cccc(CCNC[C@H](O)c2ccc(O)c3[nH]c(=O)sc23)c1 | 0.0836 |  | 0.82 | 0.276 |  | 
COc1ccccc1CCNCc1ccc(CCNC[C@H](O)c2ccc(O)c3[nH]c(=O)sc23)cc1 | 0.0606 | 0.0447 |  | 0.0447 | 29 µL/min/1e6 cells | microsomal CLint (in vitro [9]; liver microsomes): 25 µL/min/mg
COc1cccc(CNCc2cccc(CCNC[C@H](O)c3ccc(O)c4[nH]c(=O)sc34)c2)c1 | 0.154 | 0.137 | 0.91 | 0.216 |  | microsomal CLint (in vitro [9]; liver microsomes): 35 µL/min/mg
COc1nc(Br)cnc1NS(=O)(=O)c1ccc(Cl)s1 | 0.002 | 0.0013 | 0.99 |  |  | solubility thermodynamic (physchem [10]): 891 µM (≈ 343 µg/mL); fraction unbound at 5 h (in vitro [2]): 0.0191; pKa (physchem [11]): 4.1; fraction unbound at 5 h (in vitro [4]): 0.0124

SMILES | fraction unbound at 5 h (in vitro [1]) | fraction unbound at 5 h (in vitro [3]; PPB) | logD (physchem [5]; pH 7.4, LogD7.4) | fraction unbound at 5 h (in vitro [6]) | hepatocyte CLint (in vitro [8]) | also measured
O=C(c1c2ccccc2cc2ccccc12)N1CCC(N2CCC[C@@H](C(=O)N3CCOCC3)C2)CC1 | 0.266 | 0.0661 |  |  |  | fraction unbound at 5 h (in vitro [2]): 0.266; fraction unbound at 5 h (in vitro [4]): 0.289
COc1cnc(-c2ccccc2C(F)(F)CNC(=O)c2ccc(COCC(F)(F)F)nc2)cn1 | 0.0532 | 0.0069 |  | 0.0544 |  | solubility thermodynamic (physchem [10]): 85.1 µM (≈ 41.1 µg/mL)
O=C1COc2c(CCNCCN(C(=O)CCNCCc3ccc(Cl)c(Cl)c3)C3CCCCC3)ccc(O)c2N1 | 0.0801 | 0.0313 | 2.23 | 0.173 | 22 µL/min/1e6 cells | microsomal CLint (in vitro [9]; microsomes): 38 µL/min/mg
CCCN(c1cccc(S(C)(=O)=O)c1)P(=O)(c1ccccc1)c1ccccc1 | 0.186 |  |  | 0.289 |  | fraction unbound at 5 h (in vitro [3]): 0.0321
COCCN(c1cccnc1)P(=O)(c1ccccc1)c1ccccc1 | 0.376 |  |  | 0.58 |  | fraction unbound at 5 h (in vitro [3]): 0.0872
CCCN(c1cncnc1)P(=O)(c1ccccc1)c1ccccc1 |  |  |  | 0.529 |  | 
CC(C)C[C@H](CO)Nc1nc(S[C@@H](C)c2ccccc2F)nc2nc(N)sc12 |  | 0.0011 |  |  |  | fraction unbound at 5 h (in vitro [2]): 0.002; hepatocyte CLint (in vitro [7]): 30.9 µL/min/1e6 cells; fraction unbound at 5 h (in vitro [4]): 0.002
CN(CCNCCc1ccc(O)c2[nH]c(=O)sc12)C(=O)CCOCCc1ccccc1 | 0.208 | 0.107 |  | 0.276 | 140 µL/min/1e6 cells | microsomal CLint (in vitro [9]; liver microsomes): 35 µL/min/mg
Cc1ccc2c(c1)c(-c1ccnc3c(Cl)cccc13)c(C)n2CC(=O)O | 0.0077 |  | 1.27 |  |  | solubility thermodynamic (physchem [10]): 1320 µM (≈ 481 µg/mL); fraction unbound at 5 h (in vitro [2]): 0.0229; pKa (physchem [11]): 2.9; fraction unbound at 5 h (in vitro [4]): 0.0041; pKa (physchem [12]): 4.4; microsomal CLint (in vitro [9]; liver microsomes): 7 µL/min/mg
C[C@H](Cc1cccc(CC(=O)NC23CC4CC(CC(C4)C2)C3)c1)NC[C@H](O)c1ccc(O)c(CO)c1 | 0.134 |  | 2.4 | 0.208 | 43 µL/min/1e6 cells | hepatocyte CLint (in vitro [7]): 21.9 µL/min/1e6 cells; microsomal CLint (in vitro [9]; liver microsomes): 129 µL/min/mg
C[C@H](Nc1ncc(F)c(Nc2cc(C3CC3)[nH]n2)n1)c1ccc(F)cn1 | 0.035 | 0.0801 | 3.14 |  |  | fraction unbound at 5 h (in vitro [2]): 0.0418; fraction unbound at 5 h (in vitro [4]): 0.183
C[C@H](Nc1ncc(Cl)c(Nc2cc(C3CC3)[nH]n2)n1)c1ccc(F)cn1 | 0.009 | 0.0358 |  |  |  | fraction unbound at 5 h (in vitro [2]): 0.0358; fraction unbound at 5 h (in vitro [4]): 0.11
Cc1ccc2c(OCCN3CCC(Cc4cccc(NS(C)(=O)=O)c4)CC3)cccc2n1 | 0.0532 |  |  | 0.0437 |  | 
O=C(CN1CCN(Cc2ccn(-c3ccc(C(F)(F)F)cn3)c2)CC1)NC(c1ccc(F)cc1)c1ccc(F)cc1 | 0.0011 | 0.0014 |  |  |  | fraction unbound at 5 h (in vitro [2]): 0.0013; fraction unbound at 5 h (in vitro [4]): 0.0006
N=C(NCCCCc1ccc(OCC(O)CO)cc1)NC(=O)c1nc(Cl)c(N)nc1N (configuration not stated) [552-02 FREE BASE] | 0.314 | 0.249 |  | 0.299 |  | 
CC(C)(C)NCC(O)c1ccc(O)c(CO)c1 (configuration not stated) [ALBUTEROL] | 0.656 | 0.772 |  | 0.855 |  | 
CC(=O)Nc1nc2c(Oc3cc(-c4ccc(C(F)(F)F)cc4)ncn3)cccc2s1 [AMG-517] | 0.002 | 0.001 |  | 0.0139 |  | 
O=C(NCC1CCCCN1)c1cc(OCC(F)(F)F)ccc1OCC(F)(F)F (configuration not stated) [FLECAINIDE] | 0.535 | 0.619 | 1.13 | 0.574 |  | 
COc1ccc(Cl)cc1C(=O)NCCc1ccc(S(=O)(=O)NC(=O)NC2CCCCC2)cc1 [GLYBURIDE] | 0.0012 | 0.0012 | 2.23 |  |  | solubility thermodynamic (physchem [10]): 10.5 µM (≈ 5.19 µg/mL); fraction unbound at 5 h (in vitro [2]): 0.0027; hepatocyte CLint (in vitro [7]): 14.4 µL/min/1e6 cells; pKa (physchem [11]): 3.76; microsomal CLint (in vitro [9]; liver microsomes): 22 µL/min/mg
O=CNc1cc([C@@H](O)CNCCc2ccc(NC[C@H](O)c3ccccc3)cc2)ccc1O [MILVETEROL] |  | 0.285 | 0.02 | 0.194 |  | hepatocyte CLint (in vitro [7]): < 3 µL/min/1e6 cells
O=c1[nH]c2c(O)ccc(CCNCCS(=O)(=O)CCCOCCc3ccccc3)c2s1 [SIBENADET] | 0.0784 | 0.0556 | 2.61 | 0.101 | 91 µL/min/1e6 cells | microsomal CLint (in vitro [9]; microsomes): 111 µL/min/mg
CCc1c(C(=O)C(N)=O)c2c(OCC(=O)O)cccc2n1Cc1ccccc1 [VARESPLADIB] | 0.0768 |  |  |  |  | fraction unbound at 5 h (in vitro [2]): 0.22; fraction unbound at 5 h (in vitro [3]): 0.124; fraction unbound at 5 h (in vitro [4]): 0.129
